According to patent US12275703B2, “Highly purified batches of pharmaceutical grade migalastat and methods of producing the same” (Amicus Therapeutics, Inc., priority 2020, dated 2025):

Test system: bacterial reverse mutation
Assay: bacterial reverse mutation (Ames) test
Type: cell-based
Conditions: for Ames Positive?: bacterial reverse mutation (Ames) test; for Designated Genotoxin?: designation from Derek and Ames outcome
Procedure: The starting materials, reagents, intermediates, and process impurities generated in the manufacturing process for migalastat hydrochloride were assessed for their potential genotoxicity using in silico (Derek for Windows v13 Lhasa Ltd) screening software. The chemical structures which were DEREK negative were evaluated using Leadscope (Model Applier and Expert Alerts). […] Where possible, the genotoxicity of these materials was then assessed via the use of the bacterial reverse mutation (Ames) test.

SMILES	Ames Positive?	Designated Genotoxin?	further results
[N-]=[N+]=N[C@H](CO)[C@@H]1O[C@@H](O)[C@H](O)[C@H]1O [Compound Q]	Ames positive	confirmed as genotoxins	Ames Positive? (listed as drawing 78): Yes; Designated Genotoxin? (listed as drawing 78): Yes
Cl.O[C@@H]1[C@H](O)[C@@H](O)CN[C@@H]1CCl [Compound X]	Ames positive	confirmed as genotoxins	Ames Positive? (listed as drawing 80): Yes; Designated Genotoxin? (listed as drawing 80): Yes
CC(C)(C)C(=O)OC[C@@H](N=[N+]=[N-])[C@@H]1O[C@@H](OC(=O)C(C)(C)C)[C@H](OC(=O)C(C)(C)C)[C@H]1OC(=O)C(C)(C)C [5-azido-5-deoxy-1,2,3,6-tetrapivaloyl-D-galactofuranoside]	No	No	–
CC(C)(C)C(=O)OC[C@H](N=[N+]=[N-])[C@@H]1O[C@@H](OC(=O)C(C)(C)C)[C@H](OC(=O)C(C)(C)C)[C@H]1OC(=O)C(C)(C)C [Compound N]	No	No	–
CCCl [Ethyl chloride]	Yes	Yes	–
CC(C)(C)C(=O)OC[C@@H](OS(=O)(=O)C(F)(F)F)[C@@H]1O[C@@H](OC(=O)C(C)(C)C)[C@H](OC(=O)C(C)(C)C)[C@H]1OC(=O)C(C)(C)C [Compound D]	not sufficiently stable for Ames testing	designated as genotoxins	Ames Positive? (listed as drawing 74): Insufficiently stable for Ames test; Designated Genotoxin? (listed as drawing 74): Yes
CC(C)(C)C(=O)OC[C@H](OS(=O)(=O)C(F)(F)F)[C@@H]1O[C@@H](OC(=O)C(C)(C)C)[C@H](OC(=O)C(C)(C)C)[C@H]1OC(=O)C(C)(C)C [Compound F]	not sufficiently stable for Ames testing	designated as genotoxins	Ames Positive? (listed as drawing 75): Insufficiently stable for Ames test; Designated Genotoxin? (listed as drawing 75): Yes
[N-]=[N+]=N[C@@H]1CO[C@@](O)(CO)[C@@H](O)[C@H]1O [Compound P]	Ames positive	confirmed as genotoxins	Ames Positive? (listed as drawing 79): Yes; Designated Genotoxin? (listed as drawing 79): Yes
